# In PubChem BioAssay AID328 (DTP/NCI, 2004):
# “And” between values parts separate entries of the source, which are not always exact repeats. Identical values can stand only once. Toxic doses and inconclusive results are not listed. Residues, ends and D or L forms follow the SMILES beside them. *: point of attachment. Cbz = O=C(OCc1ccccc1)*
# Test system: BDF1 mice, P388 leukemia ip, median survival T/C
# Assay: NCI In Vivo Anticancer Drug Screen. Data for tumor model P388 Leukemia (intraperitoneal) in B6D2F1 (BDF1) mice
# Conditions: endpoint: median survival time, higher = longer survival
# How it was run: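 Transplantable tumour in mice; compound vs vehicle dosing; survival scored; ratio of treated to control reported.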
# [1] = dose: 50.0 mg/kg/injection, schedule: Q01DX009 (ip), vehicle: saline
# [2] = dose: 200.0 mg/kg/injection, schedule: Q04DX003 (ip), vehicle: Klucel (hydroxypropylcellulose) (HPC)
# [3] = dose: 100.0 mg/kg/injection, schedule: Q01DX009 (ip), vehicle: Klucel (hydroxypropylcellulose) (HPC)
# [4] = dose: 100.0 mg/kg/injection, schedule: Q04DX003 (ip), vehicle: Klucel (hydroxypropylcellulose) (HPC)
# [5] = dose: 200.0 mg/kg/injection, schedule: Q01DX009 (ip), vehicle: Klucel (hydroxypropylcellulose) (HPC)
# [6] = dose: 400.0 mg/kg/injection, schedule: Q04DX003 (ip), vehicle: Klucel (hydroxypropylcellulose) (HPC)
# [7] = dose: 100.0 mg/kg/injection, schedule: Q04DX003 (ip), vehicle: saline with Tween-80
# [8] = dose: 200.0 mg/kg/injection, schedule: Q04DX003 (ip), vehicle: saline with Tween-80
# [9] = dose: 400.0 mg/kg/injection, schedule: Q04DX003 (ip), vehicle: saline with Tween-80
# [10] = dose: 50.0 mg/kg/injection, schedule: Q01DX009 (ip), vehicle: saline with Tween-80
# [11] = dose: 100.0 mg/kg/injection, schedule: Q01DX009 (ip), vehicle: saline with Tween-80
# [12] = dose: 200.0 mg/kg/injection, schedule: Q01DX009 (ip), vehicle: saline with Tween-80
smiles,measurement,setting,value
CN(C)c1ccc(/C=C/C2CC[N-]C3C(O)CCCC23)cc1.CN(C)c1ccc(/C=C/C2CC[N-]C3C(O)CCCC23)cc1.CN(C)c1ccc(/C=C/C2CC[N-]C3C(O)CCCC23)cc1.[Fe+3] (configuration not stated),T/C,"dose: 100.0 mg/kg/injection, schedule: Q04DX002 (ip), vehicle: saline with Tween-80",110 % of control
same,T/C,"dose: 200.0 mg/kg/injection, schedule: Q04DX002 (ip), vehicle: saline with Tween-80",122 % of control
FC(F)(F)c1nc2nccnc2[nH]1,T/C,[1],100 % of control
same,T/C,"dose: 100.0 mg/kg/injection, schedule: Q01DX009 (ip), vehicle: saline",100 % of control
same,T/C,"dose: 200.0 mg/kg/injection, schedule: Q01DX009 (ip), vehicle: saline",108 % of control
same,T/C,[2],88 % of control
CC(C)CC(C)CC(O)CC(C)C (configuration not stated),T/C,[3],110 % of control
same,T/C,[4],100 % of control
same,T/C,[5],100 % of control
same,T/C,[2],100 % of control
same,T/C,"dose: 400.0 mg/kg/injection, schedule: Q01DX009 (ip), vehicle: Klucel (hydroxypropylcellulose) (HPC)",115 % of control
same,T/C,[6],95 % of control
Nc1ccc2c(c1)OCO2,T/C,"dose: 100.0 mg/kg/injection, schedule: Q01DX009 (sc), vehicle: olive oil, sesame oil, peanut oil",104 % of control
same,T/C,"dose: 100.0 mg/kg/injection, schedule: Q04DX003 (sc), vehicle: olive oil, sesame oil, peanut oil",91 % of control
same,T/C,"dose: 200.0 mg/kg/injection, schedule: Q04DX003 (sc), vehicle: olive oil, sesame oil, peanut oil",95 % of control
same,T/C,"dose: 400.0 mg/kg/injection, schedule: Q04DX003 (sc), vehicle: olive oil, sesame oil, peanut oil",116 % of control
CCCCCC(CN(C)C)C(=O)/C=C/c1ccc(Cl)c(Cl)c1 (configuration not stated),T/C,"dose: 2.75 mg/kg/injection, schedule: Q01DX009 (ip), vehicle: saline",110 % of control
same,T/C,"dose: 4.12 mg/kg/injection, schedule: Q01DX009 (ip), vehicle: saline",105 % of control
same,T/C,"dose: 50.0 mg/kg/injection, schedule: Q01DX001 (ip), vehicle: saline",100 % of control
CC(C)C(NC(=O)C1CCCN1C(=O)OCc1ccccc1)C(=O)O (stereo not drawn) (Cbz-Pro-Val-OH; configuration not given here),T/C,[7],104 % of control
same,T/C,[8],100 % of control
same,T/C,[9],100 % of control
CCN(CC)Cc1cc(Nc2ccnc3cc(Cl)ccc23)cc(-c2ccc(Cl)cc2)c1O,T/C,[10],110 % of control
same,T/C,[11],102 % of control
same,T/C,[12],102 % of control
Nc1nc(N)c2nc(/C=C/c3ccc4c(c3)OCO4)cnc2n1,T/C,[10],88 % of control
same,T/C,[11],88 % of control
same,T/C,[12],88 % of control
COC(=O)c1cc(=O)n(-c2ccccc2C(F)(F)F)c(SC)n1,T/C,[4],116 % of control
same,T/C,[6],123 % of control
COc1cccc(C)c1NC1=NCCO1,T/C,"dose: 1.56 mg/kg/injection, schedule: Q04DX003 (ip), vehicle: saline with Tween-80",117 % of control
C=C(C)CC#N,T/C,"dose: 50.0 mg/kg/injection, schedule: Q04DX003 (ip), vehicle: saline",100 % of control
same,T/C,"dose: 100.0 mg/kg/injection, schedule: Q04DX003 (ip), vehicle: saline",109 % of control
same,T/C,"dose: 200.0 mg/kg/injection, schedule: Q04DX003 (ip), vehicle: saline",109 % of control
Cc1cccc(NC(=O)c2ccccc2Cl)c1C,T/C,[7],109 % of control
same,T/C,[8],90 % of control
same,T/C,[9],90 % of control
CCC(O)(CC(=O)O)c1ccccc1 (configuration not stated),T/C,[7],95 % of control
same,T/C,[8],90 % of control
same,T/C,[9],90 % of control
COc1ccc(-c2oc3cc(OC4OC(C)C(O)C(O)C4O)c(O)c(O)c3c(=O)c2OC2OC(C)C(O)C(O)C2O)cc1 (configuration not stated),T/C,"dose: 25.0 mg/kg/injection, schedule: Q01DX009 (ip), vehicle: saline + alcohol",92 % of control
same,T/C,"dose: 50.0 mg/kg/injection, schedule: Q01DX009 (ip), vehicle: saline + alcohol",92 % of control
same,T/C,"dose: 100.0 mg/kg/injection, schedule: Q01DX009 (ip), vehicle: saline + alcohol",106 % of control
Cc1cc(N(CCCl)CCCl)ccc1C=NC1CCCC1,T/C,[3],150 % of control
same,T/C,[4],95 % of control
same,T/C,"dose: 133.0 mg/kg/injection, schedule: Q01DX009 (ip), vehicle: Klucel (hydroxypropylcellulose) (HPC)",169 % of control
same,T/C,[5],188 % of control and 200 % of control
same,T/C,[2],108 % of control
CC(/C=N/N=C(N)N)=N\N=C(N)N.O=C([O-])C(=O)[O-].O=C([O-])C(=O)[O-].[Nb+5].[O-][O-].[O-][O-],T/C,"dose: 12.5 mg/kg/injection, schedule: Q01DX009 (ip), vehicle: saline",97 % of control
same,T/C,[1],90 % of control
CN(C)c1ccc(/C=C/c2ccc3ccccc3[n+]2[O-])cc1,T/C,[10],99 % of control
same,T/C,[11],97 % of control
same,T/C,[12],117 % of control
Cc1cccc(/C=N\OCc2ccccc2)n1,T/C,[7],118 % of control
same,T/C,"dose: 132.0 mg/kg/injection, schedule: Q04DX003 (ip), vehicle: saline with Tween-80",104 % of control
same,T/C,[8],100 % of control
same,T/C,"dose: 300.0 mg/kg/injection, schedule: Q04DX003 (ip), vehicle: saline with Tween-80",108 % of control
same,T/C,[9],118 % of control
S=C1NC2=C(CCC/C2=C\c2ccccc2)C(c2ccccc2)N1 (configuration not stated),T/C,[10],91 % of control
same,T/C,[11],96 % of control
CCOc1cc(/C=N\Nc2nncn2N)ccc1N(CCCl)CCCl,T/C,"dose: 0.8 mg/kg/injection, schedule: Q04DX003 (ip), vehicle: saline with Tween-80",113 % of control
same,T/C,"dose: 3.0 mg/kg/injection, schedule: Q04DX003 (ip), vehicle: saline with Tween-80",154 % of control
same,T/C,"dose: 5.0 mg/kg/injection, schedule: Q04DX003 (ip), vehicle: saline with Tween-80",169 % of control
same,T/C,"dose: 8.0 mg/kg/injection, schedule: Q04DX003 (ip), vehicle: saline with Tween-80",165 % of control
same,T/C,"dose: 10.0 mg/kg/injection, schedule: Q04DX003 (ip), vehicle: saline with Tween-80",210 % of control
same,T/C,"dose: 12.0 mg/kg/injection, schedule: Q04DX003 (ip), vehicle: saline with Tween-80",203 % of control
same,T/C,"dose: 18.0 mg/kg/injection, schedule: Q04DX003 (ip), vehicle: saline with Tween-80",278 % of control and 154 % of control
same,T/C,"dose: 20.0 mg/kg/injection, schedule: Q04DX003 (ip), vehicle: saline with Tween-80",275 % of control
same,T/C,"dose: 26.0 mg/kg/injection, schedule: Q04DX003 (ip), vehicle: saline with Tween-80",300 % of control and 163 % of control
same,T/C,"dose: 40.0 mg/kg/injection, schedule: Q04DX003 (ip), vehicle: saline with Tween-80",300 % of control and 105 % of control and 213 % of control
C(=C\c1ccc2ccc(/C=C/c3ccccc3)cc2c1)/c1ccccc1,T/C,[7],112 % of control
same,T/C,[8],90 % of control
same,T/C,[9],105 % of control
Nc1ncnc2[nH]ncc12,T/C,"dose: 1.5 mg/kg/injection, schedule: Q01DX010 (ip), vehicle: saline",90 % of control
same,T/C,"dose: 3.0 mg/kg/injection, schedule: Q01DX010 (ip), vehicle: saline",104 % of control and 115 % of control
same,T/C,"dose: 6.0 mg/kg/injection, schedule: Q01DX010 (ip), vehicle: saline",100 % of control
same,T/C,"dose: 12.0 mg/kg/injection, schedule: Q01DX010 (ip), vehicle: saline",109 % of control and 110 % of control
CC1CC(C)(C)N=C(CCC[N+](=O)[O-])O1 (configuration not stated),T/C,"dose: 50.0 mg/kg/injection, schedule: Q04DX003 (ip), vehicle: saline sonified",105 % of control
same,T/C,"dose: 100.0 mg/kg/injection, schedule: Q04DX003 (ip), vehicle: saline sonified",105 % of control
same,T/C,"dose: 200.0 mg/kg/injection, schedule: Q04DX003 (ip), vehicle: saline sonified",105 % of control
O=C(CCBr)N1CCN(C(=O)CCBr)CC1,T/C,"dose: 10.0 mg/kg/injection, schedule: Q01DX010 (ip), vehicle: saline",109 % of control
same,T/C,"dose: 20.0 mg/kg/injection, schedule: Q01DX010 (ip), vehicle: saline",122 % of control
same,T/C,"dose: 40.0 mg/kg/injection, schedule: Q01DX010 (ip), vehicle: saline",181 % of control
Cc1cc(/C=C/c2cc[n+](C)c3ccccc23)c(O)c2ncccc12,T/C,"dose: 3.0 mg/kg/injection, schedule: Q01DX009 (ip), vehicle: saline",163 % of control
same,T/C,"dose: 6.0 mg/kg/injection, schedule: Q01DX009 (ip), vehicle: Klucel (hydroxypropylcellulose) (HPC)",155 % of control
same,T/C,"dose: 6.0 mg/kg/injection, schedule: Q01DX009 (ip), vehicle: saline",159 % of control
same,T/C,"dose: 12.0 mg/kg/injection, schedule: Q01DX009 (ip), vehicle: Klucel (hydroxypropylcellulose) (HPC)",165 % of control
same,T/C,"dose: 12.0 mg/kg/injection, schedule: Q01DX009 (ip), vehicle: saline",159 % of control
same,T/C,"dose: 24.0 mg/kg/injection, schedule: Q01DX009 (ip), vehicle: saline",168 % of control
OC/C=[CH]\[Sn]([c]1ccccc1)([c]1ccccc1)[c]1ccccc1,T/C,[10],89 % of control
same,T/C,[11],115 % of control
same,T/C,[12],106 % of control
